Measured values published in ChEMBL document CHEMBL1201862, “PubChem BioAssay data set” (2004).
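Cells were grown in 96-well plates and exposed to each compound for 48 hours at five concentrations; endpoints were interpolated linearly between bracketing concentrations, or set to the highest concentration if not reached. GI50 marks 50% less growth.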 Calls of active or inactive are those of the source. Cut-off read from the data, not from the text of the source: active = GI50 up to about 1.1 µM and inactive = higher.

Experiments:
Experiment in all cases: DTP human tumour cell line panel, 48 h
COLO 205 = tested on: COLO 205
DU-145 = tested on: DU-145
EKVX = tested on: EKVX
HCT-116 = tested on: HCT-116
Hs-578T = tested on: Hs-578T
IGROV-1 = tested on: IGROV-1
M14 = tested on: M14
MDA-MB-231 = tested on: MDA-MB-231
NCI-H23 = tested on: NCI-H23
SF-295 = tested on: SF-295
SK-MEL-5 = tested on: SK-MEL-5
SNB-75 = tested on: SNB-75
SR = tested on: SR
SW-620 = tested on: SW-620
TK-10 = tested on: TK-10
U-251 = tested on: U-251
UACC-257 = tested on: UACC-257
UACC-62 = tested on: UACC-62
UO-31 = tested on: UO-31
HL-60 = tested on: HL-60

| Structure (SMILES) | GI50 (COLO 205) | GI50 (DU-145) | GI50 (EKVX) | GI50 (HCT-116) | GI50 (Hs-578T) | GI50 (IGROV-1) | GI50 (M14) | GI50 (MDA-MB-231) | GI50 (NCI-H23) | GI50 (SF-295) | GI50 (SK-MEL-5) | GI50 (SNB-75) | GI50 (SR) | GI50 (SW-620) | GI50 (TK-10) | GI50 (U-251) | GI50 (UACC-257) | GI50 (UACC-62) | GI50 (UO-31) | GI50 (HL-60) |
| --- | --- | --- | --- | --- | --- | --- | --- | --- | --- | --- | --- | --- | --- | --- | --- | --- | --- | --- | --- | --- |
| COC(=O)C1=C(C)N2[C@H](C(=O)O)CO[C@@]2(C)[C@H](C(=O)OC)[C@H]1c1cccc([N+](=O)[O-])c1 | > 100 µM (inactive) | > 100 µM (inactive) | > 100 µM (inactive) | > 100 µM (inactive) | > 100 µM (inactive) | > 100 µM (inactive) | > 100 µM (inactive) | > 100 µM (inactive) | > 100 µM (inactive) | > 100 µM (inactive) | > 100 µM (inactive) | > 100 µM (inactive) | > 100 µM (inactive) | > 100 µM (inactive) | > 100 µM (inactive) | > 100 µM (inactive) | > 100 µM (inactive) | > 100 µM (inactive) | > 100 µM (inactive) | – |
| CC(NC(=O)NC(C)(C)C)NC(=O)C(N)CC(=O)O (centres undefined) | > 100 µM (inactive) | > 100 µM (inactive) | > 100 µM (inactive) | > 100 µM (inactive) | > 100 µM (inactive) | > 100 µM (inactive) | > 100 µM (inactive) | > 100 µM (inactive) | > 100 µM (inactive) | > 100 µM (inactive) | > 100 µM (inactive) | > 100 µM (inactive) | – | > 100 µM (inactive) | > 100 µM (inactive) | > 100 µM (inactive) | > 100 µM (inactive) | 14.4 µM (inactive) | > 100 µM (inactive) | – |
| COc1ccc(C2=NNC(c3cc4cc(Br)ccc4nc3Cl)C2)cc1 (centres undefined) | 11.7 µM (inactive) | 11.7 µM (inactive) | 19.4 µM (inactive) | 10.5 µM (inactive) | 0.0129 µM (active) | 9.42 µM (inactive) | 11.5 µM (inactive) | – | 15.4 µM (inactive) | – | – | 0.0631 µM (active) | 0.185 µM (active) | 10.9 µM (inactive) | – | – | 12.2 µM (inactive) | 22.6 µM (inactive) | 13.1 µM (inactive) | 6.19 µM (inactive) |
| C[n+]1c2ccccc2c(C(=O)Nc2ccc(S(=O)(=O)N=C(N)N)cc2)c2ccccc21 | > 100 µM (inactive) | > 100 µM (inactive) | > 100 µM (inactive) | > 100 µM (inactive) | > 100 µM (inactive) | 35.6 µM (inactive) | > 100 µM (inactive) | 23.2 µM (inactive) | > 100 µM (inactive) | > 100 µM (inactive) | > 100 µM (inactive) | > 100 µM (inactive) | – | > 100 µM (inactive) | > 100 µM (inactive) | > 100 µM (inactive) | > 100 µM (inactive) | > 100 µM (inactive) | > 100 µM (inactive) | – |
| c1ccc(COc2ccc(CC3SCCCS3)cc2)cc1 | > 100 µM (inactive) | > 100 µM (inactive) | > 100 µM (inactive) | > 100 µM (inactive) | – | 66.2 µM (inactive) | > 100 µM (inactive) | 74.1 µM (inactive) | – | > 100 µM (inactive) | 35.2 µM (inactive) | – | 34.4 µM (inactive) | > 100 µM (inactive) | > 100 µM (inactive) | – | 21.8 µM (inactive) | > 100 µM (inactive) | – | 23.2 µM (inactive) |
| CN(C)CCNC(=O)c1cc([N+](=O)[O-])cc2c1Oc1ccccc1O2 | 13.7 µM (inactive) | 37.8 µM (inactive) | 56.1 µM (inactive) | 7.33 µM (inactive) | 28.6 µM (inactive) | 23.4 µM (inactive) | 31.5 µM (inactive) | – | 51.8 µM (inactive) | 22 µM (inactive) | 23 µM (inactive) | 13 µM (inactive) | 11.7 µM (inactive) | 11.9 µM (inactive) | 23.7 µM (inactive) | 29.4 µM (inactive) | 29.4 µM (inactive) | 11.9 µM (inactive) | 11.4 µM (inactive) | 18.9 µM (inactive) |
| C=CCNc1ccc(C)cc1 | > 100 µM (inactive) | > 100 µM (inactive) | – | > 100 µM (inactive) | > 100 µM (inactive) | – | > 100 µM (inactive) | > 100 µM (inactive) | > 100 µM (inactive) | > 100 µM (inactive) | > 100 µM (inactive) | > 100 µM (inactive) | > 100 µM (inactive) | > 100 µM (inactive) | > 100 µM (inactive) | > 100 µM (inactive) | > 100 µM (inactive) | – | 35 µM (inactive) | – |
| Cc1cc(-c2ccc(C(=O)O)[nH]2)on1 | 22.3 µM (inactive) | 62.4 µM (inactive) | 42.1 µM (inactive) | 29.2 µM (inactive) | 49.2 µM (inactive) | 50.4 µM (inactive) | 52 µM (inactive) | > 100 µM (inactive) | 69 µM (inactive) | 47.3 µM (inactive) | 16.1 µM (inactive) | 44.3 µM (inactive) | – | 30.1 µM (inactive) | > 100 µM (inactive) | 65.6 µM (inactive) | > 100 µM (inactive) | 48 µM (inactive) | 55.6 µM (inactive) | – |
| O=[N+]([O-])C(Cl)=C/C(=C(\Cl)SCc1ccccc1)[N+](=O)[O-] | 17.8 µM (inactive) | 31.4 µM (inactive) | 17.7 µM (inactive) | 18.4 µM (inactive) | 53 µM (inactive) | 28.3 µM (inactive) | 20 µM (inactive) | 27.7 µM (inactive) | 37.5 µM (inactive) | 28.6 µM (inactive) | 20.8 µM (inactive) | 49.5 µM (inactive) | – | 21.2 µM (inactive) | 23.7 µM (inactive) | 16.7 µM (inactive) | 29 µM (inactive) | 28.9 µM (inactive) | 20.5 µM (inactive) | 5.62 µM (inactive) |
| CC(=O)CCC[C@H](C)[C@@H](O)[C@@H]1O[C@H]([C@@]2(C)CCC(=O)O2)C[C@H]1C(=O)O | > 100 µM (inactive) | > 100 µM (inactive) | > 100 µM (inactive) | > 100 µM (inactive) | > 100 µM (inactive) | > 100 µM (inactive) | – | > 100 µM (inactive) | > 100 µM (inactive) | > 100 µM (inactive) | > 100 µM (inactive) | > 100 µM (inactive) | 37.2 µM (inactive) | > 100 µM (inactive) | > 100 µM (inactive) | > 100 µM (inactive) | > 100 µM (inactive) | > 100 µM (inactive) | > 100 µM (inactive) | – |
| CCOC(=O)C1CC(O)C(=O)N1C (centres undefined) | > 100 µM (inactive) | > 100 µM (inactive) | > 100 µM (inactive) | > 100 µM (inactive) | – | > 100 µM (inactive) | > 100 µM (inactive) | > 100 µM (inactive) | > 100 µM (inactive) | > 100 µM (inactive) | > 100 µM (inactive) | – | > 100 µM (inactive) | – | > 100 µM (inactive) | > 100 µM (inactive) | > 100 µM (inactive) | > 100 µM (inactive) | > 100 µM (inactive) | > 100 µM (inactive) |
| Cc1ccc(C2=Nc3c(N)nc(N)nc3NC(c3ccccc3)C2)cc1 (centres undefined) | – | 14.7 µM (inactive) | 12.4 µM (inactive) | 4.11 µM (inactive) | 14 µM (inactive) | 5.36 µM (inactive) | 6.4 µM (inactive) | 11.8 µM (inactive) | 11.1 µM (inactive) | – | – | 11.2 µM (inactive) | 3.56 µM (inactive) | 4.02 µM (inactive) | 16.9 µM (inactive) | 12.8 µM (inactive) | 13.5 µM (inactive) | 8.15 µM (inactive) | 11.5 µM (inactive) | – |
| CC(C)c1cc2c(c(O)c1O)[C@@]1(C(=O)O)CCCC(C)(C)[C@@H]1CC2 [CARNOSIC ACID] | 24.2 µM (inactive) | 25.1 µM (inactive) | 15.9 µM (inactive) | 28.7 µM (inactive) | 24.1 µM (inactive) | 19.4 µM (inactive) | – | 31.8 µM (inactive) | 20 µM (inactive) | 22.4 µM (inactive) | 16.2 µM (inactive) | 17.8 µM (inactive) | 5.33 µM (inactive) | 31.8 µM (inactive) | 13.4 µM (inactive) | 13.8 µM (inactive) | 14.6 µM (inactive) | 13.9 µM (inactive) | 14.4 µM (inactive) | – |
| CC1=NOC(C)(O)/C1=N/O (centres undefined) | > 100 µM (inactive) | > 100 µM (inactive) | > 100 µM (inactive) | > 100 µM (inactive) | > 100 µM (inactive) | > 100 µM (inactive) | > 100 µM (inactive) | > 100 µM (inactive) | > 100 µM (inactive) | > 100 µM (inactive) | > 100 µM (inactive) | > 100 µM (inactive) | – | > 100 µM (inactive) | > 100 µM (inactive) | > 100 µM (inactive) | > 100 µM (inactive) | > 100 µM (inactive) | > 100 µM (inactive) | > 100 µM (inactive) |
| CCOC(=O)CCC(C(=O)OCC)n1nnc2ccc(Nc3c(C)[n+]([O-])c4cc(F)c(OCC)cc4[n+]3[O-])cc21 (centres undefined) | 28.2 µM (inactive) | 58.9 µM (inactive) | 44.7 µM (inactive) | 64.3 µM (inactive) | > 100 µM (inactive) | 48.1 µM (inactive) | 62.4 µM (inactive) | – | 73.3 µM (inactive) | 77.4 µM (inactive) | 50.8 µM (inactive) | 79.4 µM (inactive) | 36.5 µM (inactive) | > 100 µM (inactive) | > 100 µM (inactive) | 63.8 µM (inactive) | 21.2 µM (inactive) | 20.1 µM (inactive) | 54 µM (inactive) | 36.8 µM (inactive) |
